Measured values from ChEMBL document CHEMBL4177728, “Protective effects of 6-ureido/thioureido-2,4,5-trimethylpyridin-3-ols against 4-hydroxynonenal-induced cell death in adult retinal pigment epithelial-19 cells” (2018).

What was measured:
[1] = Antioxidant activity assessed as DPPH radical scavenging activity at 10 uM by spectrphotomery; assay type: functional
[2] = molecular target: T1, NADPH oxidase 4 (Homo sapiens) (UniProt Q9NPH5); test: (§1) Inhibition of NOX4 in human ARPE19 cells assessed as protection against 4-HNE-induced cell death by measuring cell viability recovery at 10 uM incubated for 24 hrs by MTT assay; assay type: cell-based
T1 sequence (whole entry): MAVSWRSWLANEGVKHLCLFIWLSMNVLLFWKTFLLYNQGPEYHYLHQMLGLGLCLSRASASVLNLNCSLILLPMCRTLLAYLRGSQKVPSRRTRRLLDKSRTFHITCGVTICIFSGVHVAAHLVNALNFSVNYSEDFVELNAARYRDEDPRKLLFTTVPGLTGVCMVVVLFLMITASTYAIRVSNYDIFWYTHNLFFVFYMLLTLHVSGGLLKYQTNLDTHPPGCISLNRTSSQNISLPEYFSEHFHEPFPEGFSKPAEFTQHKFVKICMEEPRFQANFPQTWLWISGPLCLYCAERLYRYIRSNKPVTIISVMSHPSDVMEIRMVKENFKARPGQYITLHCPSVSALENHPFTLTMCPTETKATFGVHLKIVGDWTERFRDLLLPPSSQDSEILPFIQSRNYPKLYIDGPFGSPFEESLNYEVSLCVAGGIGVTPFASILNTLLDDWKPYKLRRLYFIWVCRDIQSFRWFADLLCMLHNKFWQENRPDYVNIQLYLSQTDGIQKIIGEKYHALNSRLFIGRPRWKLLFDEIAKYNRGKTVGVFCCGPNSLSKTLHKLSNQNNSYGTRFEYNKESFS

[3] = molecular target: T1, NADPH oxidase 4 (Homo sapiens); test: (§2) Inhibition of NOX4 in human ARPE19 cells assessed as suppression of 4-HNE-induced superoxide production at 10 uM pre-incubated for 1 hr before 4-HNE addition for 1 hr by lucigenin chemiluminescence assay; assay type: cell-based
ARPE-19 [4] = test: Suppression of 4-HNE-induced apoptosis in human ARPE19 cells assessed as necrosis cells level at 20 uM incubated for 24 hrs by FITC Annexin V and propidium iodide staining based flow cytometry (reference value: 0.342%); assay type: functional
ARPE-19 [5] = test: Suppression of 4-HNE-induced apoptosis in human ARPE19 cells assessed as late apoptosis cells level at 10 uM incubated for 24 hrs by FITC Annexin V and propidium iodide staining based flow cytometry (reference value: 23%); assay type: functional
ARPE-19 [6] = test: Suppression of 4-HNE-induced apoptosis in human ARPE19 cells assessed as necrosis cells level at 10 uM incubated for 24 hrs by FITC Annexin V and propidium iodide staining based flow cytometry (reference value: 0.342%); assay type: functional
ARPE-19 [7] = test: Suppression of 4-HNE-induced apoptosis in human ARPE19 cells assessed as late apoptosis cells level at 5 uM incubated for 24 hrs by FITC Annexin V and propidium iodide staining based flow cytometry (reference value: 23%); assay type: functional
ARPE-19 [8] = test: Suppression of 4-HNE-induced apoptosis in human ARPE19 cells assessed as late apoptosis cells level at 20 uM incubated for 24 hrs by FITC Annexin V and propidium iodide staining based flow cytometry (reference value: 23%); assay type: functional
ARPE-19 [9] = test: Suppression of 4-HNE-induced apoptosis in human ARPE19 cells assessed as viable cells level at 20 uM incubated for 24 hrs by FITC Annexin V and propidium iodide staining based flow cytometry (reference value: 59.1%); assay type: functional
ARPE-19 [10] = test: Suppression of 4-HNE-induced apoptosis in human ARPE19 cells assessed as viable cells level at 10 uM incubated for 24 hrs by FITC Annexin V and propidium iodide staining based flow cytometry (reference value: 59.1%); assay type: functional
ARPE-19 [11] = test: Suppression of 4-HNE-induced apoptosis in human ARPE19 cells assessed as early apoptosis cells level at 20 uM incubated for 24 hrs by FITC Annexin V and propidium iodide staining based flow cytometry (reference value: 17.6%); assay type: functional
ARPE-19 [12] = test: Suppression of 4-HNE-induced apoptosis in human ARPE19 cells assessed as early apoptosis cells level at 10 uM incubated for 24 hrs by FITC Annexin V and propidium iodide staining based flow cytometry (reference value: 17.6%); assay type: functional
ARPE-19 [13] = test: Suppression of 4-HNE-induced apoptosis in human ARPE19 cells assessed as necrosis cells level at 5 uM incubated for 24 hrs by FITC Annexin V and propidium iodide staining based flow cytometry (reference value: 0.342%); assay type: functional
ARPE-19 [14] = test: Suppression of 4-HNE-induced apoptosis in human ARPE19 cells assessed as viable cells level at 5 uM incubated for 24 hrs by FITC Annexin V and propidium iodide staining based flow cytometry (reference value: 59.1%); assay type: functional
ARPE-19 [15] = test: Suppression of 4-HNE-induced apoptosis in human ARPE19 cells assessed as early apoptosis cells level at 5 uM incubated for 24 hrs by FITC Annexin V and propidium iodide staining based flow cytometry (reference value: 17.6%); assay type: functional
[16] = molecular target: T1, NADPH oxidase 4 (Homo sapiens); test: Inhibition of NOX4 in human ARPE19 cells assessed as protection against 4-HNE-induced cell death by measuring cell viability recovery incubated for 24 hrs by MTT assay; assay type: cell-based
[17] = molecular target: NADPH oxidase 4 (Homo sapiens) (UniProt Q9NPH5); test: as §1; assay type: cell-based; remark: listed apart in the source
[18] = molecular target: NADPH oxidase 4 (Homo sapiens) (UniProt Q9NPH5); test: as §2; assay type: cell-based; remark: listed apart in the source

inhibition [3] [%] | Compound | Activity [1] [%] | Activity [2] [%] | other results
0.9 | Cc1nc(NC(=O)Nc2ccc(Br)cc2)c(C)c(C)c1O | 4 | 7.3 | –
8.3 | Cc1nc(NC(=O)Nc2ccc([N+](=O)[O-])cc2)c(C)c(C)c1O | 5.2 | 13.9 | –
41.3 | Cc1nc(NC(=O)Nc2ccc(C(F)(F)F)cc2)c(C)c(C)c1O | 5.9 | 44.2 | –
61.9 | Cc1nc(NC(=S)NC2CCCCC2)c(C)c(C)c1O | 7.1 | 62.2 | –
13 | Cc1nc(NC(=S)Nc2ccc(Cl)cc2)c(C)c(C)c1O | 6.5 | 12.8 | –
8.9 | Cc1cccc(C(C)(C)C)c1NC(=O)Nc1nc(C)c(O)c(C)c1C | 3.3 | 12.8 | –
4.6 | Cc1nc(NC(=O)NCc2ccccc2)c(C)c(C)c1O | 6 | 10.5 | –
2.4 | Cc1nc(NC(=O)Nc2cccc3ccccc23)c(C)c(C)c1O | 6.3 | 7.3 | –
6.9 | Cc1nc(NC(=O)Nc2ccc(F)cc2)c(C)c(C)c1O | 7.4 | 6.2 | –
13.9 | Cc1nc(NC(=S)NC(C)C)c(C)c(C)c1O | 5.5 | 14.7 | –
9.4 | CCCNC(=O)Nc1nc(C)c(O)c(C)c1C | 5.5 | 12.5 | –
3.4 | O=C1O[C@H]([C@@H](O)CO)C(O)=C1O | 10.2 | 8.2 | –
36.7 | CCNC(=S)Nc1nc(C)c(O)c(C)c1C | 13.3 | 44.9 | –
19 | Cc1nc(NC(=S)Nc2ccc(Cl)c(Cl)c2)c(C)c(C)c1O | 6.6 | 24.9 | –
40.7 | CCCCCCCCNC(=S)Nc1nc(C)c(O)c(C)c1C | 14.6 | 45.9 | –
5.8 | COc1ccc(NC(=O)Nc2nc(C)c(O)c(C)c2C)cc1 | 7.4 | 10.8 | –
22.8 | Cc1nc(NC(=S)Nc2ccc(Br)cc2)c(C)c(C)c1O | 7.4 | 33.5 | –

inhibition [3] [%] | Compound | Activity [1] [%] | Activity [2] [%] | other results
20.1 | Cc1nc(NC(=S)Nc2cccc(C(F)(F)F)c2)c(C)c(C)c1O | 7.6 | 29.6 | –
8.8 | Cc1nc(NC(=O)NC(=O)c2ccccc2)c(C)c(C)c1O | 6.7 | 1.5 | –
51.1 | Cc1nc(NC(=O)Nc2ccc(OC(F)(F)F)cc2)c(C)c(C)c1O | 6.1 | 58.4 | –
6.2 | Cc1ccc(NC(=O)Nc2nc(C)c(O)c(C)c2C)cc1 | 3.4 | 5.3 | –
79.5 | CCCCNC(=S)Nc1nc(C)c(O)c(C)c1C | 5.9 | 85.1 | Activity (ARPE-19 [4]): 0.067%; Activity (ARPE-19 [5]): 3.38%; Activity (ARPE-19 [6]): 0.134%; inhibition [16]: Dose-dependent effect; Activity (ARPE-19 [7]): 4.24%; Activity (ARPE-19 [8]): 0.079%; Activity (ARPE-19 [9]): 99.7%; Activity (ARPE-19 [10]): 93.4%; Activity (ARPE-19 [11]): 0.112%; Activity (ARPE-19 [12]): 3.06%; Activity (ARPE-19 [13]): 0.335%; Activity (ARPE-19 [14]): 88.6%; Activity (ARPE-19 [15]): 6.84%
7.1 | Cc1nc(NC(=O)Nc2ccccc2)c(C)c(C)c1O | 5.8 | 8.9 | –
– | VITAMIN E | 10.2 | – | Activity [17]: 9.8%; inhibition [18]: 3.9%
68.7 | Cc1nc(NC(=S)NC(=O)c2ccccc2)c(C)c(C)c1O | 4.9 | 63.1 | –
2.3 | Cc1nc(NC(=S)Nc2ccccc2)c(C)c(C)c1O | 5.6 | 8.9 | –
30.8 | Cc1nc(NC(=O)Nc2ccc(Cl)cc2)c(C)c(C)c1O | 6.2 | 43.6 | –
41.3 | Cc1ccc(NC(=S)Nc2nc(C)c(O)c(C)c2C)cc1 | 6.9 | 54 | –
71.8 | Cc1nc(NC(=S)Nc2ccc([N+](=O)[O-])cc2)c(C)c(C)c1O | 5.5 | 77.7 | inhibition [16]: Dose-dependent effect
17.7 | COc1ccc(NC(=S)Nc2nc(C)c(O)c(C)c2C)cc1 | 4.7 | 23.2 | –
28.6 | Cc1ccc(S(=O)(=O)NC(=O)Nc2nc(C)c(O)c(C)c2C)cc1 | 5.7 | 32.5 | –
30.5 | Cc1nc(NC(=S)Nc2ccc(C(F)(F)F)cc2)c(C)c(C)c1O | 6.7 | 40.4 | –
-1.3 | Cc1nc(NC(=O)Nc2ccc(C(C)C)cc2)c(C)c(C)c1O | 4.2 | -5.1 | –
17.9 | CCCCCCNC(=S)Nc1nc(C)c(O)c(C)c1C | 16.5 | 22.8 | –

Compound | inhibition [3] [%] | Activity [1] [%] | Activity [2] [%] | other results
c1ccc(Cn2nnc3c(Sc4nc5ccccc5o4)ncnc32)cc1 | 78.7 | 6.9 | 79.4 | Activity (ARPE-19 [4]): 0.145%; Activity (ARPE-19 [5]): 4.42%; Activity (ARPE-19 [6]): 0.254%; Activity (ARPE-19 [7]): 7.66%; Activity (ARPE-19 [8]): 1.81%; Activity (ARPE-19 [9]): 95.2%; Activity (ARPE-19 [10]): 89.8%; Activity (ARPE-19 [11]): 2.87%; Activity (ARPE-19 [12]): 5.62%; Activity (ARPE-19 [13]): 0.25%; Activity (ARPE-19 [14]): 80.4%; Activity (ARPE-19 [15]): 11.8%
